Assays:
Hes1-GFP organoids = assay: Hes1-GFP organoid reporter assay (GFP by flow cytometry); format: cell-based, mouse; details: GSI 10 uM, βOHB 50 uM, JNJ-26481585 0.2 nM; compared to control
Protocol: FIGS. 5A-5G show βOHB-mediated HDAC inhibition enhances NOTCH signaling. FIG. 5A, Violin plots of genes related to FIG. 12A: Notch receptor Notch1, Class I HDAC genes: HDAC1/2/3 and Notch target Hes1, based on a previously published scRNA-Seq data (Haber et al., 2017). FIG. 5B, Representative flow cytometry plots (top) and quantification of GFP expression (bottom) Hes1-GFP+ primary organoids exposed to γ-secretase inhibitor (GSI, 10 uM), βOHB (50 uM) and HDAC inhibitor (JNJ-26481585, 0.2 nM), compared to control condition. n=6 samples per treatment from n=3 mice. FIG. 5C, Organoid-forming assay for intestinal crypts isolated from WT and Hmgcs2-KO mice, with combinations of HDAC inhibitor JNJ-26481585 (JNJ) or βOHB treatments or Notch receptor inhibitor (GSI, gamma secretase inhibitor). Quantification and representative images: day-5-to-7 organoids. n=4 mice. Scale bar: 500 μm. Arrows indicate organoids and asterisks indicate aborted crypts. FIG. 5D, Schematic (top) of the mouse model including the timeline of tamoxifen (TAM) and HDACi (JNJ) injection and tissue collection. Nuclear NICD, a measure of Notch activation, by immunofluorescence (IF). […] FIG. 5E, Quantification of OLFM4^+ stem cells, LYZ+ Paneth cells and AB/PAS+ goblet cells in proximal jejunal crypts by IHC. […] FIG. 5G, Quantification and representative images of tdTomato+ Lgr5^+ ISC-derived lineage (cell progenies) by IHC. […] For box-and-whisker plots (FIG. 5C) data were expressed as box-and-whisker 10 to 90 percentiles, Data in bar graph (FIG. 5D) and dot plot (FIG. 5E and FIG. 5G) are expressed as mean+/−s.e.m. *p<0.05, **p<0.01, ***p<0.005, ****p<0.0001. […]
As previously reported and briefly summarized here (Mihaylova et al., 2018), small intestines were removed, washed with cold PBS, opened longitudinally and then incubated on ice with PBS plus EDTA (10 mM) for 30-45 min. […] Isolated crypts for cultures were counted and embedded in Matrigel™ (Corning 356231 growth factor reduced) at 5-10 crypts per μL and cultured in a modified form of medium as described previously (Sato et al., 2009; Yilmaz et al., 2012). […]

Hmgcs2-null ISCs = assay: Organoid-forming assay with Hmgcs2-null crypts/ISCs; format: cell-based, mouse; details: for organoid-forming capacity of Hmgcs2-null ISCs: lactate at comparable concentrations, day-5-to-7 organoids
Excerpt: FIGS. 11A-11N. Characterization of fatty acid oxidation (FAO) and ketogenesis in intestinal crypts. Related to FIG. 4. FIG. 11A, Schematic of the mouse model for intestinal Cpt1a deletion with the timeline for tamoxifen (TAM) injections and tissue collection. FIG. 11B, Immunohistochemistry (IHC) for CPT1a (rate limiting step of FAO) and FIG. 11C, HMGCS2 levels in WT and intestinal Cpt1a loss. Images represent one of 5 biological replicates per group. FIG. 11D, βOHB levels in Cpt1a-null intestinal crypts. n=8 measurements for 4 mice per group. […] The image represents one of 8 biological replicates. FIG. 11F, IHC for HMGCS2, indicating intact HMGCS2 expression in the absence of Paneth cell. The image represents one of 8 biological replicates. For FIGS. 11C-11F, Scale bar: 50 um. FIG. 11G, Schematic of the mouse model for intestinal Hmgcs2 deletion with the timeline for TAM injections and tissue collection. FIG. 11H, Hepatic and intestinal HMGCS2 expression by IHC and FIG. 11I, serum βOHB levels in Hmgcs2-KO mice. FIG. 11J, Intestinal CPT1a expression in mice with conditional intestinal loss of Hmgcs2 by IHC, Scale bar: 100 um. The image represents one of 5 biological replicates. […] FIG. 11L, Organoid-forming assay for number of organoids per intestinal crypt, numbers of Alcian blue^+ goblet cells (black arrows) and percentage of tdTomato^+ area per organoid from WT and Hmgcs2-KO (−/−) ISCs, ±βOHB treatments: +, 10 uM and ++50 uM. Representative images: day-5-to-7 organoids. Scale bar: 50 μm. n=5 mice. […] N, Synthesis of glycerol tri((R)-3-hydroxybutyrate).
As previously reported and briefly summarized here (Mihaylova et al., 2018), small intestines were removed, washed with cold PBS, opened longitudinally and then incubated on ice with PBS plus EDTA (10 mM) for 30-45 min. Tissues were then moved to PBS. Crypts were then mechanically separated from the connective tissue by shaking or by scraping, and then filtered through a 70-μm mesh into a 50-mL conical tube to remove villus material and tissue fragments. Isolated crypts for cultures were counted and embedded in Matrigel™ (Corning 356231 growth factor reduced) at 5-10 crypts per μL and cultured in a modified form of medium as described previously (Sato et al., 2009; Yilmaz et al., 2012). Unless otherwise noted, crypt culture media consists of Advanced DMEM (Gibco) that was supplemented with EGF 40 ng mL^−1 (PeproTech), Noggin 200 ng mL^−1 (PeproTech), R-spondin 500 ng mL^−1 (R&D, Sino Bioscience or (Ootani et al., 2009)), N-acetyl-L-cysteine […] (Sigma-Aldrich), N2 1× (Life Technologies), B27 1× (Life Technologies), CHIR99021 3 μM (LC laboratories), and Y-27632 dihydrochloride monohydrate 10 μM (Sigma-Aldrich). Intestinal crypts were cultured in the above-mentioned media in 20-25 μL droplets of Matrigel™ were plated onto a flat bottom 48-well plate (Corning 3548) and allowed to solidify for 20-30 minutes in a 37° C. incubator. Three hundred microliters of crypt culture medium was then overlaid onto the Matrigel™, changed every three days, and maintained at 37° C. in fully humidified chambers containing 5% CO2. Clonogenicity (colony-forming efficiency) was calculated by plating 50-300 crypts and assessing organoid formation 3-7 days or as specified after initiation of cultures. β-Hydroxybutyrate (Sigma, 54965), Quisinostat (JNJ-26481585) 2HCl (Selleckchem, S1096), Entinostat (MS-275) (Selleckchem, S1053), Trichostatin A (Selleckchem, 51045) and γ-secretase inhibitor MK-0752 (Cayman Chemical Company, 471905-41-6) were added into cultures as indicated in the figure legends. Plasmids for Hdac1 CRISPR-deletion (sc-436647), Cre-expression (sc-418923), Cre-expression and Hmgcs2 CRISPR-deletion (VB180615-1103gue) were used for organoid transfection according to manufacturers' instructions.
If not directly used for cultures, crypts were then dissociated into single cells and sorted by flow cytometry. […]

Lgr5+ ISCs = assay: Intestinal regeneration after irradiation in Hmgcs2-KO mice (Lgr5 lineage tracing); format: in vivo, mouse; details: Hmgcs2-null mice; 1 mg/kg, 5 i.p. injections; XRT 7.5 Gy×2
Excerpt: FIG. 4F, Schematic (top) of the mouse model including the timeline of tamoxifen (TAM) injection, oral administration of nanoparticle PLGA encapsulated βOHB or non-encapsulated βOHB oligomers, irradiation (XRT, 7.5 Gy×2) and tissue collection. Quantification (bottom) and representative images (right) of tdTomato+ Lgr5^+ ISC-derived lineage (cell progenies) by IHC. Scale bar: 100 μm. n>25 crypts per measurement, n>5 measurements per mouse and n>3 mice per group. […] Data in dot plots were expressed as mean+/−s.e.m. *p<0.05, **p<0.01, ***p<0.005.

intestinal crypts = assay: HDAC inhibitor treatment of Hmgcs2-null mice, crypt histology (NICD, H3K27ac, OLFM4, LYZ, AB/PAS); format: in vivo, mouse; details: 1 mg/kg, 5 i.p. injections
class I HDACs = details: reported (Shimazu et al., 2013); cited from earlier work

O=C(O)CC[C@H]1CC[C@@](c2cc(F)ccc2F)(S(=O)(=O)c2ccc(Cl)cc2)CC1 [GSI, MK-0752]
GFP expression of Hes1-GFP organoids (NOTCH target gene expression) (Hes1-GFP organoids): dampened GFP expression
restoration of organoid-forming capacity of Hmgcs2-null crypts by βOHB or JNJ under NOTCH blockade (Hmgcs2-null ISCs; GSI added to βOHB or JNJ treated cultures): prevented the ability of either βOHB or JNJ HDAC inhibitor

Nc1ccccc1NC(=O)c1ccc(CNC(=O)OCc2cccnc2)cc1 [MS-275, Entinostat (MS-275)]
Hmgcs2-null organoid function (Hmgcs2-null ISCs; 10-to-100 nM): rescued
Hmgcs2-null organoid function (Hmgcs2-null ISCs; doses beyond 10-to-100 nM): failed to do so

Cn1cc(CNCC2CCN(c3ncc(C(=O)NO)cn3)CC2)c2ccccc21 [Quisinostat, Quisinostat (JNJ-26481585) 2HCl]
GFP expression of Hes1-GFP organoids (NOTCH target gene expression) (Hes1-GFP organoids): increased GFP expression
crypt organoid-forming capacity of Hmgcs2-null crypts (Hmgcs2-null ISCs; HDAC inhibitor at a dose shown to block HDAC1 activity, alone or with βOHB): rescued crypt organoid-forming capacity
ISC function after injury (Lgr5+ ISCs): rescued
decline in ISCs numbers (OLFM4+ stem cells) (intestinal crypts): rescued
decrease in numbers of H3K27ac or NICD positive crypt cell nuclei (intestinal crypts): prevented these changes
expansion of secretory cell types (intestinal crypts): rescued

CC(O)C(=O)O (centres unmarked) [lactate]
organoid-forming capacity of Hmgcs2-null ISCs (Hmgcs2-null ISCs; βOHB 10 uM and 50 uM): not
organoid-forming capacity of Hmgcs2-null ISCs (Hmgcs2-null ISCs; βOHB 10 uM and 50 uM, listed as Lactate): did not affect

CC(O)CC(=O)O (stereo not drawn) [βOHB, β-hydroxybutyrate]
GFP expression of Hes1-GFP organoids (NOTCH target gene expression) (Hes1-GFP organoids): increased GFP expression
secretory lineage bias of Hmgcs2-null organoids (Hmgcs2-null ISCs; βOHB 10 uM and 50 uM, Alcian blue+ goblet cells): rectified
organoid-forming capacity of Hmgcs2-null ISCs (Hmgcs2-null ISCs; βOHB 10 uM and 50 uM): rectified
generation of tdTomato+ clones by Hmgcs2-null ISCs (Hmgcs2-null ISCs; βOHB 10 uM and 50 uM, tdTomato+ area per organoid): rectified
inhibition of class I HDACs (class I HDACs): endogenous inhibitor for class I HDACs
